The results in this text go back to ChEMBL document CHEMBL1177809, “Motualevic acids and analogs: synthesis and antimicrobial structure-activity relationships” (2010).

The subject of assay [1] is Staphylococcus aureus. Kind of assay: Antibacterial activity against Staphylococcus aureus at 25 ug/disk by agar disk diffusion assay. The class given is functional. As to conditions: read-out: IZ.
Assay [2] relates to Enterococcus. Description: Antibacterial activity against vancomycin-resistant Enterococcus at 5 ug/disk by agar disk diffusion assay. It is filed as functional. As to conditions: read-out: IZ. Background: In agar diffusion tests the substance spreads into inoculated agar from a disc or well.
Assay [3] deals with Staphylococcus aureus. Kind of assay: Antibacterial activity against methicillin-resistant Staphylococcus aureus at 25 ug/disk by agar disk diffusion assay. It is filed as functional. The following applies: read-out: IZ.
Assay [4] concerns Enterococcus faecium. Description: Antibacterial activity against Enterococcus faecium at 10 ug/disk by agar disk diffusion assay. The following applies: read-out: IZ. The class given is functional.
Assay [5] relates to Enterococcus faecium. Description: Antibacterial activity against Enterococcus faecium by microbroth dilution assay. The class given is functional.
Assay [6] concerns Staphylococcus aureus. Kind of assay: Antibacterial activity against Staphylococcus aureus by microbroth dilution assay. It is filed as functional.
In assay [7] the test system is Enterococcus. Kind of assay: Antibacterial activity against vancomycin-resistant Enterococcus by microbroth dilution assay. The class given is functional. (In general: In broth dilution the organism is exposed to a series of concentrations in liquid medium.)
The test system of assay [8] is Staphylococcus aureus. Description: Antibacterial activity against methicillin-resistant Staphylococcus aureus by microbroth dilution assay. The class given is functional.
For assay [9], the system named is Enterococcus faecium. Kind of assay: Antibacterial activity against Enterococcus faecium at 25 ug/disk by agar disk diffusion assay. It is filed as functional. As to conditions: read-out: IZ.
Assay [10] has as its system Staphylococcus aureus. Kind of assay: Antibacterial activity against methicillin-resistant Staphylococcus aureus at 10 ug/disk by agar disk diffusion assay. It is filed as functional. As to conditions: read-out: IZ.
Assay [11] has as its system Staphylococcus aureus. Description: Antibacterial activity against Staphylococcus aureus at 10 ug/disk by agar disk diffusion assay. The class given is functional. As to conditions: read-out: IZ.
Assay [12] has as its system Enterococcus. Kind of assay: Antibacterial activity against vancomycin-resistant Enterococcus at 25 ug/disk by agar disk diffusion assay. The class given is functional. The following applies: read-out: IZ.
Assay [13] concerns Staphylococcus aureus. Kind of assay: Antibacterial activity against Staphylococcus aureus at 50 ug/disk by agar disk diffusion assay. The following applies: for zone of inhibition at 50 µg/disc: read-out: IZ. It is filed as functional.
The subject of assay [14] is Staphylococcus aureus. Description: Antibacterial activity against methicillin-resistant Staphylococcus aureus at 50 ug/disk by agar disk diffusion assay. The following applies: for zone of inhibition at 50 µg/disc: read-out: IZ. The class given is functional.
In assay [15] the test system is Enterococcus. Description: Antibacterial activity against vancomycin-resistant Enterococcus at 10 ug/disk by agar disk diffusion assay. It is filed as functional. As to conditions: read-out: IZ.
The subject of assay [16] is Enterococcus. Description: Antibacterial activity against vancomycin-resistant Enterococcus at 50 ug/disk by agar disk diffusion assay. It is filed as functional, organism-based.
Assay [17] concerns Enterococcus faecium. Kind of assay: Antibacterial activity against Enterococcus faecium at 50 ug/disk by agar disk diffusion assay. It is filed as functional, organism-based.
Assay [18] relates to Enterococcus faecium. Kind of assay: Antibacterial activity against Enterococcus faecium at 5 ug/disk by agar disk diffusion assay. The class given is functional. The following applies: read-out: IZ.

Values after ≈ are worked out from the molar mass of the structure shown. Active and inactive are the calls of the source. The rule behind the calls is not given here.

`CC(C)C[C@H](NC(=O)/C=C/CCCCCCCCCC=C(Br)Br)C(=O)O`: the zone of inhibition at 25 µg/disc in the assay on Staphylococcus aureus [1] and in the assay with Staphylococcus aureus [3] was 8 mm throughout. Moreover, the zone of inhibition at 5 µg/disc with Enterococcus [2] is 8 mm. For the same compound, the zone of inhibition at 10 µg/disc in the assay on Enterococcus faecium [4] was determined as 8 mm. Further, the MIC in the assay with Enterococcus faecium [5] is 6.4 µg/mL (≈ 12.9 µM); against Staphylococcus aureus [6], 2.3 µg/mL (≈ 4.64 µM); against Enterococcus [7], 3.7 µg/mL (≈ 7.47 µM); in the assay on Staphylococcus aureus [8], 2.9 µg/mL (≈ 5.86 µM).
As to `C[N+](C)(C)CCNC(=O)/C=C/CCCCCCCCCC=C(Br)Br.[Cl-]`, the zone of inhibition at 25 µg/disc in the assay with Enterococcus faecium [9] and in the assay with Enterococcus [12] was 8 mm each time. Besides, the zone of inhibition at 10 µg/disc with Staphylococcus aureus [10] and in the assay with Staphylococcus aureus [11] was 8 mm each time. Moreover, the MIC worked out at 3.7 µg/mL against Enterococcus faecium [5], 2.4 µg/mL against Staphylococcus aureus [6], 5.2 µg/mL against Enterococcus [7] and 4.2 µg/mL against Staphylococcus aureus [8].
`O=C(O)[C@@H]1C[C@H](O)CN1C(=O)/C=C/CCCCCCCCCC=C(Br)Br`: the zone of inhibition at 25 µg/disc in the assay on Staphylococcus aureus [3], in the assay with Enterococcus faecium [9] and with Enterococcus [12] was 8 mm in each case. For the same compound, in the assay on Staphylococcus aureus [13], the “inhibition zone (IZ)” value is “inactive”.
Regarding `CCC/C=C/C(=O)NCC(=O)O`, the “inhibition zone (IZ)” value in the assay with Staphylococcus aureus [14] and in the assay with Staphylococcus aureus [13] was “inactive” each time.
As for `O=C(O)[C@@H]1CCCN1C(=O)/C=C/CCCCCCCCCC=C(Br)Br`, the zone of inhibition at 25 µg/disc in the assay with Staphylococcus aureus [1] and in the assay with Enterococcus faecium [9] was 8 mm each time. The zone of inhibition at 5 µg/disc in the assay with Enterococcus [2] came to 8 mm. Besides, the zone of inhibition at 10 µg/disc with Staphylococcus aureus [10] was found to be 8 mm. The MIC with Enterococcus faecium [5] amounted to 10 µg/mL (≈ 20.9 µM); against Staphylococcus aureus [6], 10 µg/mL (≈ 20.9 µM); in the assay on Enterococcus [7], 12 µg/mL (≈ 25 µM); with Staphylococcus aureus [8], 9 µg/mL (≈ 18.8 µM).
`O=C(O)CNC(=O)/C=C/CCCCCCCCCC=C(Br)Br` [MOTUALEVIC ACID A]: the zone of inhibition at 10 µg/disc in the assay on Enterococcus [15], in the assay with Staphylococcus aureus [10] and in the assay on Staphylococcus aureus [11] was 8 mm in each case. In addition, the zone of inhibition at 25 µg/disc with Enterococcus faecium [9] and with Enterococcus [12] was 8 mm in each case. The MIC in the assay on Enterococcus faecium [5] amounted to 9.3 µg/mL (≈ 21.2 µM); in the assay with Staphylococcus aureus [6], 11 µg/mL (≈ 25 µM); against Enterococcus [7] it was 12 µg/mL (≈ 27.3 µM); with Staphylococcus aureus [8], 9.3 µg/mL (≈ 21.2 µM).
`O=C(O)CN(CC(=O)O)C(=O)/C=C/CCCCCCCCCC=C(Br)Br`: the “inhibition zone (IZ)” value in the assay with Enterococcus [16] and in the assay on Enterococcus faecium [17] was “inactive” throughout. For the same compound, the MIC result in the assay on Enterococcus faecium [5], with Staphylococcus aureus [6], with Enterococcus [7] and in the assay on Staphylococcus aureus [8] was “inactive” each time. The zone of inhibition at 50 µg/disc with Staphylococcus aureus [14] and in the assay with Staphylococcus aureus [13] was 8 mm each time.
On to `CN(C)C(=O)CNC(=O)/C=C/CCCCCCCCCC=C(Br)Br`, for which the “inhibition zone (IZ)” value in the assay on Staphylococcus aureus [14] and in the assay on Staphylococcus aureus [13] was “inactive” throughout.
With `O=C(O)CCCNC(=O)/C=C/CCCCCCCCCC=C(Br)Br`, the zone of inhibition at 25 µg/disc with Staphylococcus aureus [1], in the assay on Staphylococcus aureus [3] and in the assay with Enterococcus [12] was 8 mm throughout. For the same compound, the zone of inhibition at 10 µg/disc with Enterococcus [15] and in the assay on Enterococcus faecium [4] was 8 mm throughout. The MIC in the assay with Enterococcus faecium [5] was determined as 11 µg/mL (≈ 23.5 µM); against Staphylococcus aureus [6], 2.5 µg/mL (≈ 5.35 µM); against Enterococcus [7], 8.5 µg/mL (≈ 18.2 µM); against Staphylococcus aureus [8], 2.4 µg/mL (≈ 5.14 µM).
Regarding `O=C(O)CNC(=O)/C=C/CCCCCCCC=C(Br)Br`, the zone of inhibition at 50 µg/disc in the assay on Staphylococcus aureus [14] and in the assay with Staphylococcus aureus [13] was 8 mm in each case.
Regarding `NC(=O)CNC(=O)/C=C/CCCCCCCCCC=C(Br)Br`, the “inhibition zone (IZ)” value in the assay with Staphylococcus aureus [14] and with Staphylococcus aureus [13] was “inactive” each time.
As for `O=C(O)CNC(=O)/C=C/CCC=C(Br)Br`, the “inhibition zone (IZ)” value in the assay with Staphylococcus aureus [14] and with Staphylococcus aureus [13] was “inactive” each time.
As to `O=C(O)CCCCCCCNC(=O)/C=C/CCC=C(Br)Br`, the zone of inhibition at 25 µg/disc in the assay with Staphylococcus aureus [1] and in the assay with Staphylococcus aureus [3] was 8 mm each time.
For `CCCCCCCCC/C=C/C(=O)NCC(=O)O`, the “inhibition zone (IZ)” value in the assay on Staphylococcus aureus [14] and in the assay with Staphylococcus aureus [13] was “inactive” in each case.
On to `O=C(O)CCNC(=O)/C=C/CCCCCCCCCC=C(Br)Br`, for which the zone of inhibition at 10 µg/disc with Enterococcus [15], in the assay on Staphylococcus aureus [10] and in the assay on Staphylococcus aureus [11] was 8 mm throughout. Further, the zone of inhibition at 25 µg/disc in the assay with Enterococcus faecium [9] and in the assay on Enterococcus [12] was 8 mm each time. In addition, the MIC was 11 µg/mL (≈ 24.3 µM) against Enterococcus faecium [5], 3.6 µg/mL (≈ 7.94 µM) with Staphylococcus aureus [6], 12 µg/mL (≈ 26.5 µM) against Enterococcus [7] and 3.3 µg/mL (≈ 7.28 µM) against Staphylococcus aureus [8].
As to `O=C(O)/C=C/CCCCCCCCCC=C(Br)Br` [MOTUALEVIC ACID E], the “inhibition zone (IZ)” value in the assay on Staphylococcus aureus [14] was “inactive”. For the same compound, the zone of inhibition at 50 µg/disc with Staphylococcus aureus [13] was found to be 8 mm.
Regarding `O=C(/C=C/CCCCCCCCCC=C(Br)Br)N[C@@H](Cc1ccccc1)C(=O)O`, the zone of inhibition at 5 µg/disc with Enterococcus [2] and in the assay with Enterococcus faecium [18] was 8 mm each time. Further, the MIC was 6.3 µg/mL (≈ 11.9 µM) against Enterococcus faecium [5], 5 µg/mL (≈ 9.45 µM) in the assay with Staphylococcus aureus [6], 2.9 µg/mL (≈ 5.48 µM) in the assay with Enterococcus [7] and 4.4 µg/mL (≈ 8.31 µM) in the assay on Staphylococcus aureus [8]. In addition, the zone of inhibition at 50 µg/disc with Staphylococcus aureus [14] is 8 mm. Further, in the assay with Staphylococcus aureus [13], the “inhibition zone (IZ)” value is “inactive”.
As for `O=C(O)[C@H]1CCCN1C(=O)/C=C/CCCCCCCCCC=C(Br)Br`, the zone of inhibition at 25 µg/disc in the assay on Staphylococcus aureus [1], with Staphylococcus aureus [3], in the assay with Enterococcus faecium [9] and in the assay on Enterococcus [12] was 8 mm each time. In addition, the zone of inhibition at 10 µg/disc with Enterococcus [15] is 8 mm. Also, the minimal inhibitory concentration (MIC) amounted to 15 µg/mL (≈ 31.3 µM) against Enterococcus faecium [5], 18 µg/mL (≈ 37.6 µM) in the assay with Staphylococcus aureus [6], 11 µg/mL (≈ 23 µM) in the assay on Enterococcus [7] and 19 µg/mL (≈ 39.6 µM) in the assay with Staphylococcus aureus [8].
With `O=C(O)C[C@H](NC(=O)/C=C/CCCCCCCCCC=C(Br)Br)C(=O)O`, the “inhibition zone (IZ)” value in the assay on Enterococcus [16], in the assay on Enterococcus faecium [17] and in the assay on Staphylococcus aureus [13] was “inactive” each time. Moreover, the MIC result in the assay with Enterococcus faecium [5], in the assay on Staphylococcus aureus [6], in the assay on Enterococcus [7] and in the assay on Staphylococcus aureus [8] was “inactive” throughout.
For the compound `O=C(/C=C/CCCCCCCCCC=C(Br)Br)N[C@H](C(=O)O)c1ccccc1`, the zone of inhibition at 25 µg/disc in the assay with Staphylococcus aureus [1], with Staphylococcus aureus [3] and in the assay on Enterococcus [12] was 8 mm each time. The zone of inhibition at 10 µg/disc in the assay on Enterococcus [15] and with Enterococcus faecium [4] was 8 mm each time. Also, the minimum inhibitory concentration (MIC) against Enterococcus faecium [5] was found to be 25 µg/mL (≈ 48.5 µM); in the assay on Staphylococcus aureus [6], 17 µg/mL (≈ 33 µM); in the assay on Enterococcus [7] it was 22 µg/mL (≈ 42.7 µM); in the assay on Staphylococcus aureus [8], 21 µg/mL (≈ 40.8 µM).

For orientation: MIC means the least concentration at which growth counts as inhibited.
